Assay [1] relates to hippocampal neural precursor cells (NPCs). The experiment in a line: Immunoblotting assay of VGluT1, ChAT, GAD65/67 in cultured hippocampal neural precursor cells. In kind it is cell-based, rat. The source says:
Pregnant Sprague-Dawley rats purchased from Orient Animal Breeding Center (a branch of Charles River Laboratories, Gyeonggi-do, Korea) were sacrificed by exposing to CO2 inhalation. Hippocampal neural precursor cells (NPCs) were isolated from the brain of the E16 rat embryo according to the method of Shin M H et al. (Exp Mol Med, 2002) with slight modifications.
Briefly, hippocampi were aseptically dissected from the embryonic forebrain, mechanically dissociated in Ca^2+/Mg^2+-free Hank's balanced salt solution (HBSS) and then plated at 7×10^5 cells/cm^2 on 60-mm dishes pre-coated with 15 μg/mL poly-L-ornithine and 1 μg/mL fibronectin. The neural precursor cells were cultured in serum-free N2 media supplemented with 10 ng/mL bFGF in 5% CO2 for 3 days and then detached using 0.05% trypsin-ethylenediaminetetraacetic acid (EDTA). The neural precursor cells were plated on 12-mm cover glasses (Bellco Co., Vineland, N.J., USA) and cultured one more day in N2 media supplemented with 10 ng/mL bFGF in 5% CO2 (primary culturing).
Following the primary culturing in (1), the cultured hippocampal neural precursor cells were lysed in 80 μL of a cold RIPA buffer containing a protease inhibitor cocktail for immunoblotting assay of VGluT1, ChAT and GAD65/67. After centrifugation for 10 minutes at 13,000×g, the supernatants were divided into Eppendorf tubes and stored at −80° C.
Protein quantification assay was performed using a Bradford protein assay kit (Bio-Rad, Hercules, Calif., USA). […]
The number of the VGluT1- and GAD-positive cells in the brain slice samples 1 week and 4 weeks after the administration of soyasaponin I was presented per microscopic field (×400-VGluT1, ×800-GAD67) and the number of the ChAT-positive cells was presented per each hippocampal region (10-12 confocal laser microscopic fields). […] Western blotted membranes were analyzed using the multi-gauge, bio-imaging program on LAS-4000 Mini (Fujifilm Life Science, Stamford, Conn., USA). […]

The test system of assay [2] is BrdU-positive neural precursor cells in the hippocampal region. The experiment in a line: Immunohistochemical analysis of BrdU in hippocampus after soyasaponin I administration (Experimental Example 1). It is filed as in vivo, rat. The protocol:
After conducting the three behavioral tests, the rats were sacrificed for immunohistochemical analysis.
The brain slices of the test animals of the normal group (Sham), the IBO group and the Soya-I group were immunostained by the method of Heo H et al. (J Ethnopharmacol, 2009) with modifications. The rats were transcardially perfused with 4% PFA in PBS. Following fixation by immersing in 4% PFA in PBS for 3 hours, the brain tissues were cryoprotected in 30% sucrose in PBS, frozen with an optimal cutting temperature (OCT) compound and stored at −80° C.
The brain tissue blocks were cryosectioned through the coronal plane at a thickness of 35 μm. The brain tissue sections were stored at 4° C. in a storing solution (30% glycerol and 30% ethylene glycol in PBS). The stored brain slices were permeabilized in 0.5% Triton X-I00 for 20 minutes and incubated at 37° C. for 30 minutes in 2 N HCl. Then, they were blocked in 15% normal serum and 3% bovine serum albumin (BSA, bio-WORLD, Dublin, Ohio, USA) and 0.1% Triton X-100 for 2 hours under a free-floating condition.
The sections were incubated for 16 hours at 4° C. with primary antibodies against bromodeoxyuridine (BrdU) (Sigma). […]
In the immunohistochemical analysis, the number of the cells immnunostained against each antibody was counted from 5 or 6 hippocampal coronal sections. […]

Take `C[C@@H]1O[C@@H](O[C@H]2[C@H](O[C@H]3[C@H](O[C@H]4CC[C@@]5(C)[C@@H](CC[C@]6(C)[C@@H]5CC=C5[C@@H]7CC(C)(C)C[C@@H](O)[C@]7(C)CC[C@]56C)[C@@]4(C)CO)O[C@H](C(=O)O)[C@@H](O)[C@@H]3O)O[C@H](CO)[C@H](O)[C@@H]2O)[C@H](O)[C@H](O)[C@H]1O` [soyasaponin I]: the “Expression level of ChAT protein compared to the normal group” value in assay [1] (0.5, 1, 2 μM test groups, normalized to β-actin and vehicle) is 1.9 fold. In assay [1] (treatment for 6 days), the “Expression of GAD65/67 protein” value was “increased relatively little” and the “Expression of VGluT1 protein” value is reported as “increased relatively little”. In addition, the “Dose with greatest rise in number of BrdU-positive cells” value in assay [2] (10 mg/kg oral) is given as “largest increase”. Further, the “Number of BrdU-positive cells in the dentate gyrus of the hippocampus versus IBO” value in assay [2] (all doses (5, 10, 20 mg/kg) oral) was “increased significantly”.

Values taken from patent US20150307841A1, “Composition for Promoting Differentiation and Proliferation of Neural Stem Cell and Neural Precursor Cell” (priority 2014, published 2015).
